Measured values reported in patent US20100137375A1, “Emulsifiable Concentrate” (BASF SE, priority 2005, published 2010).

Legend:
[1] = system: Southern armyworm (Spodoptera eridania), third instar; test: Lima bean leaf-dip test against Southern armyworm; assay type: in vivo
Description: Performance of EC formulations according to the invention against Southern armyworm (Spodoptera eridania), third instar
A stock solution of metaflumizone formulation is diluted into a container of water. Lima bean leaves are dipped into treatment solutions and allowed to air-dry. A single treated leaf is placed topside-up onto water-moistened filter paper in multiple plastic petri dishes. Seven larvae are placed onto each leaf and then each arena is sealed with petri dish covers. Each treatment replicated 4-fold (1 replicate=1 petri dish arena). Following treatment application, infested plants are held in the laboratory under fluorescent lighting and constant 26° C. Larval mortality/morbidity (i.e., number dead/number tested) is assessed at 5 days post-treatment. The mortality levels based on number of live larve.

[2] = system: Colorado potato beetle (Leptinotarsa decemlineata); test: Field trial against Colorado potato beetle in potatoes; assay type: in vivo; settings: 60 g AI/HA
Description: Performance of EC formulations according to the invention against the Colorado potato beetle (Leptinotarsa decemlineata) in potatoes
The trial was arranged in a randomized complete block design with three replications. Plots were 5 m long and one row (1 m) wide. Applications were conducted with a fournozzle row crop boom delivering side and overhead coverage, at 3-bar pressure and 400 l/ha. Numbers of larvae (L1/2) (L3/4) were recorded per plot at 2, 5 and 14 DAT (day after treatment) and a defoliation assessment was made at 14 DAT. Colorado potato beetle pressure was high resulting in complete defoliation in the controls at 19 DAT.

[3] = larval mortality at 5 days post-treatment, Log Dose-Probit analysis

With `N#Cc1ccc(CC(=NNC(=O)Nc2ccc(OC(F)(F)F)cc2)c2cccc(C(F)(F)F)c2)cc1` [metaflumizone] the LC50 [1, 3] was 1.50 ppm, the LC90 [1, 3] was 7.70 ppm and the “Biological Enhancement” value ([1]; relative to metaflumizone dispersed in water (standard control)) was 1x (standard control). The “Mean # of L1/L2 per plot” value ([2]; 2 DAT) was “.3b”, the “Mean # of L3/L4 per plot” value ([2]; 2 DAT) was “.3b” and the “Mean # of L1/L2 per plot” value ([2]; 5 DAT) was 4b. For the same compound, the “Mean # of L3/L4 per plot” value ([2]; 5 DAT) was 2b, the “% Defoliation” value ([2]; 14 DAT) was 18a % and the “Mean # of L1/L2 per plot” value ([2]; 14 DAT) was “.3a”. For the same compound, the “Mean # of L3/L4 per plot” value ([2]; 14 DAT) was 7ab.
